# Biological target: Wild Type HPK1 (MAP4K1) Kinase (Homo sapiens (Human), UniProt Q92918)
# Experiment: HPK1 Assay (Caliper EZ reader, fluorescein tagged peptide substrate)
# Format: biochemical
# Conditions: ATP 500 micromolar, kinase 6 nM, pH 7.4
# Experimental: The enzymatic activity of Wild Type HPK1 (MAP4K1) Kinase was measured in the presence or absence of an inhibitor compound of the present disclosure by preparation of a reaction mixture containing a fluorescein tagged peptide (2 micromolar final concentration), ATP (Adenosine Triphosphate, 500 micromolar final concentration) and Wild Type kinase (6 nM final concentration) in a buffer system comprising 50 mM HEPES (Buffer), 3 mM MgCl2, 5% w/v Trehalose, 0.01% Brij 35 (Detergent), 0.1% Pluronic F127 (Surfactant), 0.1 mM EDTA (Ethylenediaminetetraacetic acid), 0.1 mM EGTA (ethylene glycol-bis(β-aminoethyl ether)-N,N,N′,N′-tetraacetic acid) and 1 mM DTT (Dithiothreitol) and at a pH of 7.4. The reactions were quenched by the addition of EDTA to a final concentration of 25 mM. A Caliper EZ reader was used to measure the extent of substrate to product conversion.
# The peptide substrate used in the HPK1 assay was designed based on the amino acid sequence surrounding serine residue 376 of SLP76-Lymphocyte cytosolic protein 2 (a known intracellular substrate of HPK1). This sequence SSFPQSAsLPPYFSQ was modified as follows for use in Caliper assays of HPK1: the serine residues on either side of serine 376 were replaced with alanine, three lysine residues were added at the […] and a fluorescein tag (FAM) was attached to the […] to produce the sequence, FAM-FPQAAsLPPYFAKKK.
# Wild Type HPK1 (MAP4K1) Kinase, sequence (Q92918 whole entry, species assumed): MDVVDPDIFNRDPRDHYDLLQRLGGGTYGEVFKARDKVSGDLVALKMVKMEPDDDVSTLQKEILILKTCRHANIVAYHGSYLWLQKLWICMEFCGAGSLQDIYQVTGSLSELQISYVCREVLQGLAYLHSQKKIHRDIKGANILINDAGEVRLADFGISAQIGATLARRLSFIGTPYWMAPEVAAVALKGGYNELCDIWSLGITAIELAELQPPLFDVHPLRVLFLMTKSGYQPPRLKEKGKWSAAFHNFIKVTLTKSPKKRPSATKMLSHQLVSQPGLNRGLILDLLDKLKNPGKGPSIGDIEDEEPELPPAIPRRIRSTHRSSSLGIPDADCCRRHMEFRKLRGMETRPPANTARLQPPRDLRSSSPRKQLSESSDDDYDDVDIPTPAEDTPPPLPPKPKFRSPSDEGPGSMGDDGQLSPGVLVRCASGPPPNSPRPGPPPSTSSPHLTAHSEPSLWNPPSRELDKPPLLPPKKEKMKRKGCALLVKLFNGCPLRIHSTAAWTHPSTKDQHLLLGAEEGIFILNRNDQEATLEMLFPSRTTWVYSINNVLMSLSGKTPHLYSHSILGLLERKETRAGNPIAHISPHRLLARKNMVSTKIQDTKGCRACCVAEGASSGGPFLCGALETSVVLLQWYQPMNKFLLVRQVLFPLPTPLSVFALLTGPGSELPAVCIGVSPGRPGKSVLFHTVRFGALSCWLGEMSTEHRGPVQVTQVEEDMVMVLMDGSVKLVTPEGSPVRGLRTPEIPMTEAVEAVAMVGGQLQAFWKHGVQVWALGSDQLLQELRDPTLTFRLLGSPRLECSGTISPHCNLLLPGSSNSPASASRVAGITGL
row,Structure (SMILES),IC50 [nM]
1,"COc1cc2c(cc1Nc1ncc(Cl)c(Nc3ccccc3P(C)(C)=O)n1)C(=O)NCC2 [Example I-33, 7-((5-chloro-4-((2-(dimethylphosphoryl)phenyl)amino)pyrimidin-2-yl)amino)-6-methoxy-3,4-dihydroisoquinolin-1(2H)-one]",100 to 10000
2,"COc1cc2c(cc1Nc1ncc(Cl)c(Nc3ccccc3P(C)(C)=O)n1)C(=O)N(C)CCC2 [Example I-34, 8-((5-chloro-4-((2-(dimethylphosphoryl)phenyl)amino)pyrimidin-2-yl)amino)-7-methoxy-2-methyl-2,3,4,5-tetrahydro-1H-benzo[c]azepin-1-one]",100 to 10000
3,"COc1cc2c(cc1Nc1ncc(Cl)c(Nc3ccccc3P(C)(C)=O)n1)CN(C)CCC2 [Example I-35, (2-((5-chloro-2-((7-methoxy-2-methyl-2,3,4,5-tetrahydro-1H-benzo[c]azepin-8-yl)amino)pyrimidin-4-yl)amino)phenyl)dimethylphosphine oxide]",100 to 10000
4,"CCOc1cc2c(cc1Nc1ncc(Cl)c(Nc3ccccc3P(C)(C)=O)n1)CN(C)CC2 [Example I-36, (2-((5-chloro-2-((6-ethoxy-2-methyl-1,2,3,4-tetrahydroisoquinolin-7-yl)amino)pyrimidin-4-yl)amino)phenyl)dimethylphosphine oxide]",10 to 100
5,"CP(C)(=O)c1ccccc1Nc1nc(Nc2cc3c(cc2C(F)(F)F)CCNC3)ncc1Cl [Example I-37, (2-((5-Chloro-2-((6-(trifluoromethyl)-1,2,3,4-tetrahydroisoquinolin-7-yl)amino)pyrimidin-4-yl)amino)phenyl)dimethylphosphine oxide]",10 to 100
6,"COc1cc2c(cc1Nc1ncc(Cl)c(Nc3ccccc3P(C)(C)=O)n1)CCNC2 [Example I-38, (2-((5-chloro-2-((7-methoxy-1,2,3,4-tetrahydroisoquinolin-6-yl)amino)pyrimidin-4-yl)amino)phenyl)dimethylphosphine oxide]",< 5
7,"[2H]C1([2H])NCCc2cc(OC)c(Nc3ncc(Cl)c(Nc4ccccc4P(C)(C)=O)n3)cc21 [Example I-39, (2-((5-chloro-2-((6-methoxy-1,2,3,4-tetrahydroisoquinolin-7-yl-1,1-d2)amino)pyrimidin-4-yl)amino)phenyl)dimethyl-phosphine oxide]",< 5
8,"COc1cc2c(cc1Nc1ncc(Cl)c(Nc3ccccc3P(C)(C)=O)n1)CNCC2(C)C [Example I-40, (2-((5-chloro-2-((6-methoxy-4,4-dimethyl-1,2,3,4-tetrahydroisoquinolin-7-yl)amino)pyrimidin-4-yl)amino)phenyl)dimethylphosphine oxide]",< 5
9,"COc1cc2c(cc1Nc1ncc(Cl)c(Nc3ccccc3P(C)(C)=O)n1)CNCC2 [Example I-41, (2-((5-chloro-2-((6-methoxy-1,2,3,4-tetrahydroisoquinolin-7-yl)amino)pyrimidin-4-yl)amino)phenyl)dimethylphosphine oxide]",< 5
10,"COc1cc2c(cc1Nc1ncc(Cl)c(Nc3ccccc3P(C)(C)=O)n1)CN(C1COC1)CC2 [Example I-42, (2-((5-Chloro-2-((6-methoxy-2-(oxetan-3-yl)-1,2,3,4-tetrahydroisoquinolin-7-yl)amino)pyrimidin-4-yl)amino)phenyl)dimethylphosphine oxide]",10 to 100
11,"[2H]C1([2H])c2cc(Nc3ncc(Cl)c(Nc4ccccc4P(C)(C)=O)n3)c(OC)cc2CCN1C(C)C [Example I-43, (2-((5-chloro-2-((2-isopropyl-6-methoxy-1,2,3,4-tetrahydroiso-quinolin-7-yl-1,1-d2)amino)pyrimidin-4-yl)amino)phenyl)-dimethylphosphine oxide]",< 5
12,"COc1cc2c(cc1Nc1ncc(Cl)c(Nc3ccccc3P(C)(C)=O)n1)CN(C)CC2(C)C [Example I-44, (2-((5-chloro-2-((6-methoxy-2,4,4-trimethyl-1,2,3,4-tetrahydroisoquinolin-7-yl)amino)pyrimidin-4-yl)amino)phenyl)-dimethylphosphine oxide]",5 to 10
13,"CN1CCc2cc(C(F)(F)F)c(Nc3ncc(Cl)c(Nc4ccccc4P(C)(C)=O)n3)cc2C1 [Example I-45, (2-((5-chloro-2-((2-methyl-6-(trifluoromethyl)-1,2,3,4-tetrahydroiso-quinolin-7-yl)amino)-pyrimidin-4-yl)-amino)phenyl)dimethylphosphine oxide]",100 to 10000
14,"C=Cc1cnc(Nc2cc3c(cc2OC)CCN(C)C3)nc1Nc1ccccc1P(C)(C)=O [Example I-46, (2-((2-((6-Methoxy-2-methyl-1,2,3,4-tetrahydroisoquinolin-7-yl)amino)-5-vinylpyrimidin-4-yl)amino)phenyl)dimethylphosphine oxide]",< 5
15,"COc1cc2c(cc1Nc1ncc(-c3cnn(C)c3)c(Nc3ccccc3P(C)(C)=O)n1)CN(C)CC2 [Example I-47, (2-((2-((6-methoxy-2-methyl-1,2,3,4-tetrahydroisoquinolin-7-yl)amino)-5-(1-methyl-1H-pyrazol-4-yl)pyrimidin-4-yl)amino)phenyl)dimethylphosphine oxide]",100 to 10000
16,"CCc1cnc(Nc2cc3c(cc2OC)CCN(C)C3)nc1Nc1ccccc1P(C)(C)=O [Example I-48, (2-((5-Ethyl-2-((6-methoxy-2-methyl-1,2,3,4-tetrahydroisoquinolin-7-yl)amino)pyrimidin-4-yl)amino)phenyl)dimethylphosphine oxide]",5 to 10
17,"COc1cc2c(cc1Nc1ncc(Cl)c(Nc3ccccc3S(=O)(=O)C(C)C)n1)CN(C)CC2 [II-1, 5-chloro-N^4-(2-(isopropylsulfonyl)phenyl)-N^2-(6-methoxy-2-methyl-1,2,3,4-tetrahydroisoquinolin-7-yl)pyrimidine-2,4-diamine]",< 5
18,"COc1cc2c(cc1Nc1ncc(Cl)c(Nc3ccccc3S(=O)(=O)N(C)C)n1)CN(C)CC2 [II-2, 2-((5-chloro-2-((6-methoxy-2-methyl-1,2,3,4-tetrahydroisoquinolin-7-yl)amino)pyrimidin-4-yl)amino) N,N-dimethylbenzenesulfonamide]",< 5
19,"CNC(=O)c1ccccc1Nc1nc(Nc2cc3c(cc2OC)CCN(C)C3)ncc1Cl [II-3, 2-((5-chloro-2-((6-methoxy-2-methyl-1,2,3,4-tetrahydroisoquinolin-7-yl)amino)pyrimidin-4-yl)amino)-N-methylbenzamide]",5 to 10
